Patent US10028913B2, “Liposomal pharmaceutical preparation and method for manufacturing the same” (priority 2006, dated 2018)
Where “and” joins values, the source holds several entries; their conditions need not be identical. Equal entries are not always repeated. Where two headings read alike, the source gives them in different places.

Tests used:
[1] = system: L1210 ascitic tumor; assay: Treatment effects of liposomal mitoxantrone with different size on L1210 ascitic tumor; type: in vivo, BDF1 mice; settings: 4 mg/kg, 60 days observation
Text: Ascitic tumor BDF1 mice which were inoculated with L1210 ascitic tumor cells 7 days ago were executed by decollation, and milky viscous ascitic fluid was extracted under aseptic condition and diluted by RPMI 1640 medium. After dilution, the tumor cell number was adjusted to 2.5×10^6 cells/ml. […] After inoculation, the cells in the residual tumor cell suspension were counted under light microscope, and living tumor cells were greater than 95%.
After administration, the mice were bred normally. Their body weights were measured 3 times per week, the death time of each mouse was observed and recorded, and survival time was calculated. Mean survival time (MST) and median survival time were employed to evaluate the survival time of each group. Experimental observation was kept for 60 days after the inoculation.
The experimental scheme and data process mode were the same as Example 19. […] The administration dosage for mice in each group was 4 mg/kg.

[2] = system: C57 mice; assay: Toxicity comparison of liposome formulations with different sizes; type: in vivo
Protocol: The dose was 9 mg/kg. […] In mice of FM group, the body weight decreased over 30% and about 20% mice died.

[3] = system: Kunming mice; assay: Acute toxicity comparison of PLM60 and FM to Kunming mice; type: in vivo
Text: Mice of groups 1-5 were administrated with different dose levels of FM, while mice of groups 6-10 were administrated with an equivalent dose level of liposomal drug. […] The dead animals were dissected and autopsied.

[4] = system: S180 solid tumor; assay: Treatment effects on S-180 sarcoma solid tumor; type: in vivo, KM mice; settings: 21st day after inoculation
Protocol: Ascitic tumor-bearing mice which were inoculated with S180 tumor cells 7 days ago were executed by decollation, and milky viscous ascitic fluid was extracted and diluted with RPMI 1640 medium. After dilution, the tumor cell number was adjusted to 2.5×10^6 cells/ml. […] After inoculation, the cells in the residual tumor cell suspension were counted under light microscope, and living tumor cells were greater than 95%. The number of inoculated mice was 80.
The mice were administered by intravenous injection.
The mice were bred normally after administration. Tumor diameters were measured by vernier caliper 3 times per week, and body weights were measured at the same time. Tumor volume (TV) was calculated with the following formula: V=½×a×b2, in which a and b represent length and width, respectively. The tumor volumes were calculated by using the measurement results. Mice were executed by decollation on the 21st day after inoculation, tumors were taken out and weighed. […] The experimental result was tested by t-test.

[5] = two dissociable groups at physiological pH; cited from earlier work
[6] = Pharmacokinetics of PLM60 and FM in Kunming mice (plasma level of mitoxantrone); type: in vivo; settings: 2 mg/kg, tail vein
Protocol: This example was conducted in male Kunming mice with a body weight of about 20 g. Different dose levels of mitoxantrone were injected through tail vein in mice. […] Plasma samples were taken at different time points. The methods for processing and detecting plasma samples were described in the document: Methods in enzymology, Vol: 391, p176-185.

[7] = Tissue distribution in S-180 tumor-bearing mice; type: in vivo; settings: male, Kunming, mouse, intravenous, 4 mg/kg i.v.; for concentration at 1 h: t 1 h; for concentration at 4 h: t 4 h; for concentration at 8 h: t 8 h; for concentration at 24 h: t 24 h
Protocol: There were obvious differences in tissue distribution between PLM60 and FM in tumor-bearing mice. Male Kunming mice having a body weight about 20 g were used in the present example. […] Drugs were injected through vein in mice when tumor grew to 0.4-0.7 g. After the administration of drugs, mice were executed at various time points and their tissues were taken out to determine the concentration of mitoxantrone. The tissues included hearts, livers, spleens, lungs, kidneys, intestines, bone marrow and tumors.

[8] = heart, read-out: concentration of mitoxantrone in Heart
[9] = intestine, read-out: concentration of mitoxantrone in Intestine
[10] = kidney, read-out: concentration of mitoxantrone in Kidney
[11] = liver, read-out: concentration of mitoxantrone in Liver
[12] = lung, read-out: concentration of mitoxantrone in Lung
[13] = spleen, read-out: concentration of mitoxantrone in Spleen
[14] = tumor, read-out: concentration of mitoxantrone in Tumor

SMILES: O=C1c2c(O)ccc(O)c2C(=O)c2c(NCCNCCO)ccc(NCCNCCO)c21 [FM, mitoxantrone]
- Mean survival time [1]: 38.67 ± 3.54
- Median survival time [1]: 36.00 ± 6.06
- Survival rate [1]: 33.33%
- mice died ([2]; male C57 mice, FM group): about 20%
- body weight decrease ([2]; mouse, in vivo): over 30%
- Survival time of mice (male / female), individual animals ([3]; dose 12 mg/kg): 18 day (4×) and 13 day (3×)
- Survival time of mice (male / female), individual animals ([3]; dose 20 mg/kg): 7 day (4×) and 8 day (3×)
- Weight of tumor ([4]; 4 mg/kg i.v.): 2828.5 ± 1067.8 mg
- Ratio of tumor-inhibiting ([4]; 6 mg/kg i.v.): 18.50%
- Weight of tumor ([4]; 6 mg/kg i.v.): 2293.3 ± 1720.0 mg
- pKa [5]: 8.15
- AUMC 0-48 [6]: 0.103
- AUMC 0-∞ [6]: 0.135
- AUC(0-inf) ([6]; male, Kunming, mouse, iv): 199 ng·h/mL
- Cmax ([6]; male, Kunming, mouse, iv): 699 ng/mL
- Tmax ([6]; male, Kunming, mouse, iv): 4.98 min
- AUC(0-t) ([6]; male, Kunming, mouse, iv, read-out: AUC 0-48): 198 ng·h/mL
- MRT last ([6]; male, Kunming, mouse, iv, read-out: MRT 0-48): 31 min
- MRT inf ([6]; male, Kunming, mouse, iv, read-out: MRT 0-∞): 40.5 min
- concentration at 1 h ([7]; bone marrow, read-out: concentration of mitoxantrone in Bone marrow): 127 ng/g
- concentration at 1 h [7, 8]: 5380 ng/g
- concentration at 4 h [7, 8]: 3520 ng/g
- concentration at 8 h [7, 8]: 3200 ng/g
- concentration at 24 h [7, 8]: 2940 ng/g
- concentration at 1 h [7, 9]: 1530 ng/g
- concentration at 4 h [7, 9]: 2140 ng/g
- concentration at 8 h [7, 9]: 2550 ng/g
- concentration at 24 h [7, 9]: 3940 ng/g
- concentration at 1 h [7, 10]: 18200 ng/g
- concentration at 4 h [7, 10]: 17200 ng/g
- concentration at 8 h [7, 10]: 13400 ng/g
- concentration at 24 h [7, 10]: 7460 ng/g
- concentration at 1 h [7, 11]: 4770 ng/g
- concentration at 4 h [7, 11]: 3560 ng/g
- concentration at 8 h [7, 11]: 2660 ng/g
- concentration at 24 h [7, 11]: 1940 ng/g
- concentration at 1 h [7, 12]: 10200 ng/g
- concentration at 4 h [7, 12]: 8020 ng/g
- concentration at 8 h [7, 12]: 7020 ng/g
- concentration at 24 h [7, 12]: 8080 ng/g
- concentration at 1 h [7, 13]: 4040 ng/g
- concentration at 4 h [7, 13]: 4460 ng/g
- concentration at 8 h [7, 13]: 3770 ng/g
- concentration at 24 h [7, 13]: 7750 ng/g
- concentration at 1 h [7, 14]: 61.4 ng/g
- concentration at 4 h [7, 14]: 13.3 ng/g
